Measured values as given in PubChem BioAssay AID2060500 (Molecular Pharmacology Branch, DTP, NCI, 2025).

Test system: 596521-263-R-J1-PDC complex spheroids, viability % of control
Assay: Anticancer human tumor 596521-263-R-J1-PDC patient-derived soft tissue sarcoma cell line growth inhibition [GQUAD]
Settings: for IC50: curve of first compound; for viability, T/C: stronger effect = lower value; active = viability on the fitted dose curve at most 10% of control; inactive = the rest
Method in brief: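 Viability of tumor cells grown as complex spheroids with endothelial and stromal cells, exposed to drug combinations. Top concentration at or near clinical Cmax (else 10 microM), diluted in half-log increments.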

[1] = second compound 0.0316 µM, first compound 0.0316 µM
[2] = second compound 0.0316 µM, first compound 0.1 µM
[3] = second compound 0.0316 µM, first compound 0.316 µM
[4] = second compound 0.0316 µM, first compound 1 µM
[5] = second compound 0.0316 µM, first compound 3.16 µM
[6] = second compound 0.0316 µM, first compound 10 µM
[7] = second compound 0.1 µM, first compound 0.0316 µM
[8] = second compound 0.1 µM, first compound 0.1 µM
[9] = second compound 0.1 µM, first compound 0.316 µM
[10] = second compound 0.1 µM, first compound 1 µM
[11] = second compound 0.1 µM, first compound 3.16 µM
[12] = second compound 0.1 µM, first compound 10 µM
[13] = second compound 0.316 µM, first compound 0.0316 µM
[14] = second compound 0.316 µM, first compound 0.1 µM
[15] = second compound 0.316 µM, first compound 0.316 µM
[16] = second compound 0.316 µM, first compound 1 µM
[17] = second compound 0.316 µM, first compound 3.16 µM
[18] = second compound 0.316 µM, first compound 10 µM
[19] = second compound 1 µM, first compound 0.0316 µM
[20] = second compound 1 µM, first compound 0.1 µM
[21] = second compound 1 µM, first compound 0.316 µM
[22] = second compound 1 µM, first compound 1 µM
[23] = second compound 1 µM, first compound 3.16 µM
[24] = second compound 1 µM, first compound 10 µM
[25] = second compound 3.16 µM, first compound 0.0316 µM
[26] = second compound 3.16 µM, first compound 0.1 µM
[27] = second compound 3.16 µM, first compound 0.316 µM
[28] = second compound 3.16 µM, first compound 1 µM
[29] = second compound 3.16 µM, first compound 3.16 µM
[30] = second compound 3.16 µM, first compound 10 µM
[31] = second compound 10 µM, first compound 0.0316 µM
[32] = second compound 10 µM, first compound 0.1 µM
[33] = second compound 10 µM, first compound 0.316 µM
[34] = second compound 10 µM, first compound 1 µM
[35] = second compound 10 µM, first compound 3.16 µM
[36] = second compound 10 µM, first compound 10 µM
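Also: spheroids exposed to drugs for 7 days before viability reading.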
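For viability, T/C in this document: 100% = DMSO vehicle control viability.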

C=CCn1c(=O)c2cnc(Nc3ccc(N4CCN(C)CC4)cc3)nc2n1-c1cccc(C(C)(C)O)n1 + Cc1[nH]c2ccc(F)cc2c1-c1nc2c3cccnc3c3ncccc3c2[nH]1
5.29 µM: IC50 (second compound 1 µM)
inactive: viability, T/C [1] 99.1% | viability, T/C [2] 97.8% | viability, T/C [3] 92.5% | viability, T/C [4] 88% | viability, T/C [5] 69.9% | viability, T/C [6] 32% | viability, T/C [7] 120% | viability, T/C [8] 91.6% | viability, T/C [9] 92.5% | viability, T/C [10] 94.7% | viability, T/C [11] 64.8% | viability, T/C [12] 30% | viability, T/C [13] 110% | viability, T/C [14] 88.3% | viability, T/C [15] 81.7% | viability, T/C [16] 84.5% | viability, T/C [17] 70.3% | viability, T/C [18] 31.2% | viability, T/C [19] 102% | viability, T/C [20] 88.8% | viability, T/C [21] 86.7% | viability, T/C [22] 90.2% | viability, T/C [23] 64.3% | viability, T/C [24] 31.3% | viability, T/C [25] 83.7% | viability, T/C [26] 85% | viability, T/C [27] 92.1% | viability, T/C [28] 86.2% | viability, T/C [29] 66.8% | viability, T/C [30] 33.7% | viability, T/C [31] 90.3% | viability, T/C [32] 82.2% | viability, T/C [33] 84.5% | viability, T/C [34] 79.2% | viability, T/C [35] 69.4% | viability, T/C [36] 31.2%
5.46 µM: IC50 (second compound 0.316 µM)
5.31 µM: IC50 (second compound 0.1 µM)
5.57 µM: IC50 (second compound 10 µM)
5.81 µM: IC50 (second compound 0.0316 µM)
5.68 µM: IC50 (second compound 3.16 µM)

CC(C)(O)C1CCC(Nc2ccc3ncc(-c4cccc(C(F)(F)F)c4)n3n2)CC1 (stereo unspecified) + Cc1[nH]c2ccc(F)cc2c1-c1nc2c3cccnc3c3ncccc3c2[nH]1
> 10 µM: IC50 (second compound 0.0316 µM) | IC50 (second compound 0.1 µM) | IC50 (second compound 0.316 µM) | IC50 (second compound 1 µM) | IC50 (second compound 3.16 µM) | IC50 (second compound 10 µM)
inactive: viability, T/C [1] 98.3% | viability, T/C [2] 96.8% | viability, T/C [3] 97.9% | viability, T/C [4] 101% | viability, T/C [5] 102% | viability, T/C [6] 87.2% | viability, T/C [7] 120% | viability, T/C [8] 92.5% | viability, T/C [9] 92.3% | viability, T/C [10] 100% | viability, T/C [11] 96.4% | viability, T/C [12] 81.7% | viability, T/C [13] 98.5% | viability, T/C [14] 90.6% | viability, T/C [15] 103% | viability, T/C [16] 92.3% | viability, T/C [17] 103% | viability, T/C [18] 82.9% | viability, T/C [19] 90.7% | viability, T/C [20] 88.5% | viability, T/C [21] 98.5% | viability, T/C [22] 101% | viability, T/C [23] 106% | viability, T/C [24] 79.5% | viability, T/C [25] 89.3% | viability, T/C [26] 96.5% | viability, T/C [27] 94.1% | viability, T/C [28] 83.2% | viability, T/C [29] 95.2% | viability, T/C [30] 80.6% | viability, T/C [31] 77.7% | viability, T/C [32] 92% | viability, T/C [33] 91% | viability, T/C [34] 86.4% | viability, T/C [35] 84.9% | viability, T/C [36] 68.6%

COc1ncnc(C2CC2)c1-c1ncc2cnn(Cc3ccc(-c4nc(C(F)(F)F)cn4C(C)C)cc3)c2n1 + Cc1[nH]c2ccc(F)cc2c1-c1nc2c3cccnc3c3ncccc3c2[nH]1
1.2 µM: IC50 (second compound 3.16 µM)
1.19 µM: IC50 (second compound 0.316 µM) | IC50 (second compound 1 µM)
inactive: viability, T/C [1] 100% | viability, T/C [2] 88.8% | viability, T/C [3] 79.6% | viability, T/C [4] 56.9% | viability, T/C [5] 33.5% | viability, T/C [7] 98.8% | viability, T/C [8] 90.4% | viability, T/C [9] 75.6% | viability, T/C [10] 67% | viability, T/C [11] 27.1% | viability, T/C [13] 85.8% | viability, T/C [14] 95.4% | viability, T/C [15] 80.3% | viability, T/C [16] 49.7% | viability, T/C [17] 27.8% | viability, T/C [19] 87.2% | viability, T/C [20] 78.8% | viability, T/C [21] 75% | viability, T/C [22] 49.9% | viability, T/C [23] 31.1% | viability, T/C [25] 84.9% | viability, T/C [26] 95.3% | viability, T/C [27] 68.5% | viability, T/C [28] 53.9% | viability, T/C [29] 29.4% | viability, T/C [31] 95.4% | viability, T/C [32] 76.7% | viability, T/C [33] 71.3% | viability, T/C [34] 54.6% | viability, T/C [35] 20.6%
1.5 µM: IC50 (second compound 0.1 µM)
0.991 µM: IC50 (second compound 10 µM)
1.46 µM: IC50 (second compound 0.0316 µM)
active: viability, T/C [6] 2.52% | viability, T/C [12] 2.12% | viability, T/C [18] 1.85% | viability, T/C [24] 1.7% | viability, T/C [30] 2.26% | viability, T/C [36] 1.93%
